The experiment has as its target T1, Human Polθ polymerase domain (aa1820-2590) (Homo sapiens, UniProt O75417).
T1 construct: Human Polθ polymerase domain (aa1820-2590) was expressed in E. coli; made in house; host or cells: E. coli
T1 sequence (O75417 1820-2590): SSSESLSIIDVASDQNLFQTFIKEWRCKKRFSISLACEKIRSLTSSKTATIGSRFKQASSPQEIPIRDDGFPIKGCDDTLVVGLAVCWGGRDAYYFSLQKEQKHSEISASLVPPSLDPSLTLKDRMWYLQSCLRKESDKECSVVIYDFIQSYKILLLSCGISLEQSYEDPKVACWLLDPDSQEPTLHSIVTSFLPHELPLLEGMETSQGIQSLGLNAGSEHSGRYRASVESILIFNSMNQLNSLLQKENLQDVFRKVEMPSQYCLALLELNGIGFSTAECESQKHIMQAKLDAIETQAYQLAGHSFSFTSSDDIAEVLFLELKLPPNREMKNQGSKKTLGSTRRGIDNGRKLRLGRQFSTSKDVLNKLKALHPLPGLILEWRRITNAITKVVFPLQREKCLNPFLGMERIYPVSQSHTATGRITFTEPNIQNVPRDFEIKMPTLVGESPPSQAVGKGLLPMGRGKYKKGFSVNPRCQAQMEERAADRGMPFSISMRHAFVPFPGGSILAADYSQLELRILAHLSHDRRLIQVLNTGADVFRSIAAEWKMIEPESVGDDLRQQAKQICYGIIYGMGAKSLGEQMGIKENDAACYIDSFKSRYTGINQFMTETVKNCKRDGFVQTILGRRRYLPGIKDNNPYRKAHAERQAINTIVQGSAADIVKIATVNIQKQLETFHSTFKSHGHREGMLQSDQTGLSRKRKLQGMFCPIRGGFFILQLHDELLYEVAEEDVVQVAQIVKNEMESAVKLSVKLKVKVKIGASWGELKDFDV
The experiment in a line: Polθ Polymerase Domain Kinact/KI Assay (PicoGreen). Conditions: 0.8 nM Polθ, 100 nM DNA substrate, kobs vs [I] fit for 2-step covalent inhibitor. It is filed as biochemical. The essentials: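 Covalent Kinact/KI by PicoGreen DNA synthesis readout: E. coli-expressed Polθ polymerase domain (0.8 nM), 100 nM annealed DNA substrate, […], Tris pH 7.5 buffer with DTT, 1% DMSO; EDTA-stopped over 0–60 min time course. kobs from progress curves, then kobs vs [I] fit to two-step covalent model.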

SMILES strings stand for the structures.

For the compound `C=CC(=O)N1CC2(CN(CCN3C[C@H]4CC(=O)N(c5cc(C(F)(F)F)cc(C)n5)[C@@H]4C(=O)N(C)c4cccc(C)c43)C[C@H]2C#N)C1` (racemic) [Example 118b, (S/R)-2-acryloyl-6-(2-((3aR,11aS)-6,10-dimethyl-1-(6-methyl-4-(trifluoromethyl)pyridin-2-yl)-2,11-dioxo-1,2,3,3a,4,10,11,11a-octahydro-5H-benzo[b]pyrrolo[2,3-f][1,4]diazocin-5-yl)ethyl)-2,6-diazaspiro[3.4]octane-8-carbonitrile], the Kinact/Kl worked out at 3.36e+06 M⁻¹ s⁻¹.
In the case of `Cc1cc(C(F)(F)F)cc(N2C(=O)C[C@@H]3CN(Cc4ccc(NC(=O)/C=C/CN(C)C)c(F)c4)c4c(Cl)cccc4N(C)C(=O)[C@H]32)n1` [Example 245, (E)-N-(4-(((3aR,11aS)-6-chloro-10-methyl-1-(6-methyl-4-(trifluoromethyl)pyridin-2-yl)-2,11-dioxo-1,2,3,3a,4,10,11,11a-octahydro-5H-benzo[b]pyrrolo[2,3-f][1,4]diazocin-5-yl)methyl)-2-fluorophenyl)-4-(dimethylamino)but-2-enamide], the Kinact/Kl turned out to be 1.9e+06 M⁻¹ s⁻¹.
`C=CC(=O)N1CC(N2CCC[C@H](CN3C[C@H]4CC(=O)N(c5cc(C(F)(F)F)cc(C)n5)[C@@H]4C(=O)N(C)c4cccc(F)c43)C2)C1` (racemic) [Example 225b, (3aR,11aS)-5-(((S/R)-1-(1-acryloylazetidin-3-yl)piperidin-3-yl)methyl)-6-fluoro-10-methyl-1-(6-methyl-4-(trifluoromethyl)pyridin-2-yl)-1,3a,4,5,10,11a-hexahydro-2H-benzo[b] pyrrolo[2,3-f] [1,4]diazocine-2,11(3H)-dione]: the Kinact/Kl came to 1.31e+06 M⁻¹ s⁻¹.
The figure for `C=CC(=O)N1CCN2C(=O)CN(CCN3C[C@H]4CC(=O)N(c5cc(C(F)(F)F)cc(C)n5)[C@@H]4C(=O)N(C)c4cccc(F)c43)CC2C1` (mixture of isomers) [Example 116a, (3aR,11aS)-5-(2-((R/S)-8-acryloyl-4-oxooctahydro-2H-pyrazino[1,2-a]pyrazin-2-yl)ethyl)-6-fluoro-10-methyl-1-(6-methyl-4-(trifluoromethyl)pyridin-2-yl)-1,3a,4,5,10,11a-hexahydro-2H-benzo[b]pyrrolo[2,3-f][1,4]diazocine-2,11(3H)-dione] is 1.17e+06 M⁻¹ s⁻¹; for `C=CC(=O)N1Cc2cc(CN3C[C@H]4CC(=O)N(c5cc(C(F)(F)F)cc(C)n5)[C@@H]4C(=O)N(C)c4cccc(C)c43)cnc2[C@H]1COC` (racemic) [Example 234, (3aR,11aS)-5-(((S/R)-6-acryloyl-7-(methoxymethyl)-6,7-dihydro-5H-pyrrolo[3,4-b]pyridin-3-yl)methyl)-6,10-dimethyl-1-(6-methyl-4-(trifluoromethyl)pyridin-2-yl)-1,3a,4,5,10,11a-hexahydro-2H-benzo[b]pyrrolo[2,3-f][1,4]diazocine-2,11(3H)-dione] it is 5.85e+06 M⁻¹ s⁻¹.
On to `C=CC(=O)N1C[C@@H]2CN(CCN3C[C@H]4CC(=O)N(c5cc(C(F)(F)F)cc(C)n5)[C@@H]4C(=O)N(C)c4cccc(F)c43)CCN2[C@@H](C)C1` [Example 64b, (3aR,11aS)-5-(2-((6S/R,9aS/R)-8-acryloyl-6-methyloctahydro-2H-pyrazino[1,2-a]pyrazin-2-yl)ethyl)-6-fluoro-10-methyl-1-(6-methyl-4-(trifluoromethyl)pyridin-2-yl)-1,3a,4,5,10,11a-hexahydro-2H-benzo[b]pyrrolo[2,3-f][1,4]diazocine-2,11(3H)-dione], for which the Kinact/Kl came to 270000 M⁻¹ s⁻¹.
The figure for `C=CC(=O)N1C[C@@H]2CN(CCN3C[C@H]4CC(=O)N(c5cc(C(F)(F)F)cc(C)n5)[C@@H]4C(=O)N(C)c4cccc(F)c43)CCN2[C@H](C)C1` [Example 63a, (3aR,11aS)-5-(2-((6R/S,9aS/R)-8-acryloyl-6-methyloctahydro-2H-pyrazino[1,2-a]pyrazin-2-yl)ethyl)-6-fluoro-10-methyl-1-(6-methyl-4-(trifluoromethyl)pyridin-2-yl)-1,3a,4,5,10,11a-hexahydro-2H-benzo[b]pyrrolo[2,3-f][1,4]diazocine-2,11(3H)-dione] is 3.1e+06 M⁻¹ s⁻¹; for `C=CC(=O)N1CC(N2CCC(F)(CN3C[C@H]4CC(=O)N(c5cc(C(F)(F)F)cc(C)n5)[C@@H]4C(=O)N(C)c4cccc(Cl)c43)CC2)C1` [Example 217, (3aR,11aS)-5-((1-(1-acryloylazetidin-3-yl)-4-fluoropiperidin-4-yl)methyl)-6-chloro-10-methyl-1-(6-methyl-4-(trifluoromethyl)pyridin-2-yl)-1,3a,4,5,10,11a-hexahydro-2H-benzo[b] pyrrolo[2,3-f] [1,4]diazocine-2,11(3H)-dione] it is 1.59e+06 M⁻¹ s⁻¹; for `C=C(CN(C)C)C(=O)N1CC(c2cc(CN3C[C@H]4CC(=O)N(c5cc(C(F)(F)F)cc(C)n5)[C@@H]4C(=O)N(C)c4cccc(C)c43)ccc2F)C1` [Example 187, (3aR,11aS)-5-(3-(1-(2-((dimethyl-amino)methyl)-acryloyl)azetidin-3-yl)-4-fluorobenz-yl)-6,10-dimethyl-1-(6-methyl-4-(trifluoromethyl)-pyridin-2-yl)-1,3a,4,5,10,11a-hexahydro-2H-benzo[b]pyrrolo [2,3-f][1,4]diazo-cine-2,11(3H)-dione] it is 1.41e+06 M⁻¹ s⁻¹.
The compound `C=CC(=O)N1CC(N2CCC(CN3C[C@H]4CC(=O)N(c5cc(C(F)(F)F)cc(C)n5)[C@@H]4C(=O)N(C)c4cccc(Cl)c43)CC2)C1` [Example 92, (3aR,11aS)-5-((1-(1-acryloylazetidin-3-yl)piperidin-4-yl)methyl)-6-chloro-10-methyl-1-(6-methyl-4-(trifluoromethyl)pyridin-2-yl)-1,3a,4,5,10,11a-hexahydro-2H-benzo[b]pyrrolo[2,3-f][1,4]diazocine-2,11(3H)-dione] returned a Kinact/Kl of 2.56e+06 M⁻¹ s⁻¹.
As for `C=CC(=O)N1CC(N(C)CC(O)CN2C[C@H]3CC(=O)N(c4cc(C(F)(F)F)cc(C)n4)[C@@H]3C(=O)N(C)c3cccc(Cl)c32)C1` (single isomer, unassigned) [Example 69], the Kinact/Kl worked out at 1.09e+06 M⁻¹ s⁻¹.
In turn, `C=C(CN(C)C)C(=O)N1CC(C2CCC(CN3C[C@H]4CC(=O)N(c5cc(C(F)(F)F)cc(C)n5)[C@@H]4C(=O)N(C)c4cccc(Cl)c43)CC2)C1` (stereo partly drawn) [Example 160, (3aR,11aS)-6-chloro-5-((4-(1-(2-((dimethylamino)methyl)acryloyl)azetidin-3-yl)cyclohexyl)methyl)-10-methyl-1-(6-methyl-4-(trifluoromethyl)pyridin-2-yl)-1,3a,4,5,10,11a-hexahydro-2H-benzo[b]pyrrolo[2,3-f][1,4]diazocine-2,11(3H)-dione] returned a Kinact/Kl of 2.3e+06 M⁻¹ s⁻¹.
Turning to `C=CC(=O)N1CCN2C[C@@H](CN3C[C@H]4CC(=O)N(c5cc(C(F)(F)F)cc(C)n5)[C@@H]4C(=O)N(C)c4cccc(F)c43)N(C)C[C@H]2C1` (single isomer, unassigned) [Example 140a], the Kinact/Kl amounted to 22000 M⁻¹ s⁻¹.
Consider `C=CC(=O)N1CC2(C1)NCCN(CCN1C[C@H]3CC(=O)N(c4cc(C(F)(F)F)cc(C)n4)[C@@H]3C(=O)N(C)c3cccc(F)c31)C2C` (single isomer, unassigned) [Example 34b], for which the Kinact/Kl was found to be 1.69e+06 M⁻¹ s⁻¹.
`C=CC(=O)N1CC(NCCCN2C[C@H]3CC(=O)N(c4cc(C(F)(F)F)cc(C)n4)[C@@H]3C(=O)N(C)c3cccc(F)c32)C1` [Example 70, (3aR,11aS)-5-(3-((1-acryloylazetidin-3-yl)amino)propyl)-6-fluoro-10-methyl-1-(6-methyl-4-(trifluoromethyl)pyridin-2-yl)-1,3a,4,5,10,11a-hexahydro-2H-benzo[b]pyrrolo[2,3-f][1,4]diazocine-2,11(3H)-dione] displayed a Kinact/Kl of 970000 M⁻¹ s⁻¹.
Turning to `C=CC(=O)N1C[C@@H](n2cc(CN3C[C@H]4CC(=O)N(c5cc(C(F)(F)F)cc(C)n5)[C@@H]4C(=O)N(C)c4cccc(C)c43)cn2)[C@@H](F)C1` (single isomer, unassigned) [Example 325c], the Kinact/Kl was found to be 980000 M⁻¹ s⁻¹.
`C=C(CN(C)C)C(=O)N1CC(CCCCN2C[C@H]3CC(=O)N(c4cc(C(F)(F)F)cc(C)n4)[C@@H]3C(=O)Nc3cccc(C)c32)C1` [Example 192, (3aR,11aS)-5-(4-(1-(2-((dimethyl-amino)methyl)-acryloyl)azetidin-3-yl)butyl)-6-meth-yl-1-(6-methyl-4-(trifluoromethyl)-pyridin-2-yl)-1,3a,4,5,10,11a-hexahydro-2H-benzo[b]pyrrolo [2,3-f][1,4]diazo-cine-2,11(3H)-dione]: the Kinact/Kl stood at 2.18e+06 M⁻¹ s⁻¹.
